Laboratory results published in ChEMBL document CHEMBL1201862, “PubChem BioAssay data set” (2004).
Active and inactive are the calls of the source.

Key:
[1] = biological target: Peroxisome proliferator-activated receptor gamma/Nuclear receptor coactivator 1 (Homo sapiens, UniProt P37231); assay: (§1) TR-FRET dose response biochemical High Throughput Screening assay for agonists of the steroid receptor coactivator 1 (SRC-1) recruitment by the peroxisome proliferator-activated receptor gamma (PPAR gamma): non-selective agonists. [Related pubchem assays (depositor defined):AID1300, AID1808, AID504735, AID631]; type: protein assay
[2] = biological target: Peroxisome proliferator-activated receptor gamma/Nuclear receptor coactivator 3 (Homo sapiens, UniProt P37231); assay: as §1, with “3 (SRC-3)” for “1 (SRC-1)”, “assays: 1301 (Confirmation screen.), 1048 (Primary screen.)]” for “assays (depositor defined):AID1300, AID1808, AID504735, AID631]”; type: functional
[3] = biological target: Peroxisome proliferator-activated receptor gamma/Nuclear receptor coactivator 2 (Homo sapiens, UniProt P37231); assay: TR-FRET dose response biochemical High Throughput Screening assay for agonists of the steroid receptor coactivator 2 (SRC-2) recruitment by the peroxisome proliferator-activated receptor gamma (PPAR gamma): non-selective agonists. [Related pubchem assays: 1297, 1032 ]; type: functional
[4] = biological target: T1, Short transient receptor potential channel 4 (Mus musculus, UniProt Q9QUQ5); assay: block of DAMGO-driven TRPC4 calcium entry – cell-based, HEK293 TRPC4/mu-opioid, Fluo-4 calcium, dose response (AID 434942); type: functional;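 further: potency of inhibitors blocking the TRPC4 calcium response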
T1 sequence (Q9QUQ5 whole entry): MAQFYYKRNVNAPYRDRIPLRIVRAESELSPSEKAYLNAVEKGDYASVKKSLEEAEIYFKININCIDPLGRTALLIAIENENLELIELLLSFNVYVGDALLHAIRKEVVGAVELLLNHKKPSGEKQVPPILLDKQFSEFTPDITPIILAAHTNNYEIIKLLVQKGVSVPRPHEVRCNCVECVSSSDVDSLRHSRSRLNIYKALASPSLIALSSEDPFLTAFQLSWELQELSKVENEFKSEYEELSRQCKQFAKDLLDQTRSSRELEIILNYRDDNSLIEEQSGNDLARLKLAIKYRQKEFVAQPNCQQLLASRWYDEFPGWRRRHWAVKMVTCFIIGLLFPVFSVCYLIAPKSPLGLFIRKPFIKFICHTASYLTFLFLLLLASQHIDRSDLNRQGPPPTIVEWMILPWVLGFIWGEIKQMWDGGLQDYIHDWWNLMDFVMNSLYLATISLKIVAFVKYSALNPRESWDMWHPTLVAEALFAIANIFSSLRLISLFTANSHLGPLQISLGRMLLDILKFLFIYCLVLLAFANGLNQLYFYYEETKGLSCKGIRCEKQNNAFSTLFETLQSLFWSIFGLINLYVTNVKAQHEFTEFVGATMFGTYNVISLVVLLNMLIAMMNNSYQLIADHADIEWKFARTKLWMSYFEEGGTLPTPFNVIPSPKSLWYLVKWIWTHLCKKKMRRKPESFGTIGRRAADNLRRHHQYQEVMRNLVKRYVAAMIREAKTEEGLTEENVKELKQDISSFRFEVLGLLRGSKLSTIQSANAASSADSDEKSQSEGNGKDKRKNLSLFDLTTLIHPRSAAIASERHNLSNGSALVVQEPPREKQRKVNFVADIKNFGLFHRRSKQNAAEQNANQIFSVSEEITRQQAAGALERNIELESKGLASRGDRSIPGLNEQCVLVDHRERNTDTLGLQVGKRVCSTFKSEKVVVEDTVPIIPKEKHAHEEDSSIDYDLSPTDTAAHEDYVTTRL

[5] = luciferase reporter signal suppression in cells – H4 neuroglioma cells, luminescence, dose response (AID 1990); type: functional, cell-based
[6] = tested on: BJ; assay: BJ-TERT fibroblast viability loss – cell-based, RAS-independent, luminescence, dose response (AID 1933); type: functional; conditions: Homo sapiens
[7] = Luminescence Cell-Based Dose Response HTS to Identify Inhibitors of 5'UTR Stem-Loop Driven Prion Protein mRNA Translation in H4 Neuroglioblastoma Cells. [Related pubchem assays: 1827 (Project Summary), 1813 (Primary HTS)]; type: functional
[8] = alpha-synuclein stem-loop luciferase translation blockers – H4 neuroglioma cells, luminescence, confirmation (AID 1988); type: functional, cell-based
[9] = tested on: BJ; assay: cells; type: functional, cell-based; conditions: Homo sapiens
[10] = tested on: BJ; assay: BJ-TERT-LT-ST fibroblast viability loss – cell-based, RAS-independent, luminescence, dose response (AID 1935); type: functional; conditions: Homo sapiens;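 further: BJ fibroblasts immortalized with TERT plus LT and ST oncogenes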
[11] = DRD fibroblast viability loss – cell-based, non-viral oncogenic, luminescence, dose response (AID 1934); type: functional; conditions: Homo sapiens
[12] = HEK-293T viability loss after treatment – luminescence, T-cell screen hits, cytotoxicity control for TCR NF-kB inhibitor project, dose response (AID 489026); type: functional, cell-based;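 further: cells exposed to compound about 14 hours before the viability readout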
[13] = NIH-3T3 fibroblast cytotoxicity, dose response, cytotoxicity control, cell-based, fluorescence, Alamar Blue, secondary assay (AID 2327); type: functional;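 further: NIH-3T3 mouse fibroblasts cultured with fluconazole at 8 µg/mL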
[14] = fluconazole-exposed Candida albicans growth modulators – fluorescence, retest, confirmation (AID 2467); type: functional, cell-based
[15] = Trypanosoma cruzi growth suppression in host cells – NIH3T3 host cells, beta-gal luminescence, confirmation (AID 2044); type: functional, cell-based;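 further: intracellular parasites grown in NIH/3T3 mouse fibroblasts as host cells; luminescent beta-galactosidase reporter signal from transgenic T. cruzi replicating inside host cells; inhibitors lower the luminescence signal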
[16] = NIH3T3 cell viability loss – ATP luminescence, mouse fibroblasts, counter-screen, dose response (AID 2010); type: functional, cell-based;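 further: cells exposed to compound for about 90 hours before reading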
[17] = biological target: Melanocortin receptor 4 (Homo sapiens, UniProt P32245); assay: inhibitors of MC4R cAMP signaling – cell-based, TR-FRET, biased antagonists, dose response (AID 602298); type: functional;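 further: antagonist potency against agonist-stimulated cAMP production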
[18] = cAMP pathway inhibition in counterscreen cell line – TR-FRET cAMP detection, counter-screen for MC4R biased antagonist project, dose response (AID 602305); type: functional, cell-based;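 further: U2OS cells stimulated with forskolin near its EC80 as the cAMP inducer; potency is for inhibition of forskolin-stimulated cAMP signaling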
[19] = biological target: T2, Protein skinhead-1 (Caenorhabditis elegans, UniProt P34707); type: functional
T2 sequence (P34707 whole entry): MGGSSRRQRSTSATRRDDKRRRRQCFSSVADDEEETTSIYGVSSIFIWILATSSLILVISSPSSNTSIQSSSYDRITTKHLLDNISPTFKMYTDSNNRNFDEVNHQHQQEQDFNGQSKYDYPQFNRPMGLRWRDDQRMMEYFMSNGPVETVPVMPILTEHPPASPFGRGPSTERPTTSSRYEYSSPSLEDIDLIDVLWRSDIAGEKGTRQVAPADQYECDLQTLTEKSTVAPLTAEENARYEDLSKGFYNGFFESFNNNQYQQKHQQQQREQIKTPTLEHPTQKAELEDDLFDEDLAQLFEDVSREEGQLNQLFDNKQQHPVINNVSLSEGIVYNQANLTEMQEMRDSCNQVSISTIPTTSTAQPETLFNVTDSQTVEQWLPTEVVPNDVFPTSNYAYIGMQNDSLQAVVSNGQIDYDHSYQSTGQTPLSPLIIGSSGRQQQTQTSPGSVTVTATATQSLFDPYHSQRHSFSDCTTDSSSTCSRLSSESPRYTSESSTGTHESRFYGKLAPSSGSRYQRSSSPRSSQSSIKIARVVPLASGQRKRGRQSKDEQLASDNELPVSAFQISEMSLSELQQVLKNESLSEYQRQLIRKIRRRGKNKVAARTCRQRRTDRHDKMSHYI

[20] = viability of PTEN-deleted HCT116 cells – cell-based, HCT116 PTEN knockout, dose response (AID 1047); type: functional;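 further: HCT116 colon tumor cells with PTEN knocked out; cells exposed to compound for 60 hours before readout; potency for loss of cell viability measured by luminescence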
[21] = viability of HCT116 lacking mutant beta-catenin – cell-based, human colon tumor, dose response (AID 1045); type: functional;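 further: HCT116 colon tumor cells with beta catenin knocked out; cells exposed to compound for 60 hours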
[22] = Luminescence Cell-Based Dose Retest to Confirm Inhibitors of Cancer Stem Cells. [Related pubchem assays (depositor defined):AID2717, AID2721]; type: functional; conditions: Homo sapiens
[23] = biological target: T3, Microphthalmia-associated transcription factor (Homo sapiens, UniProt O75030); assay: reducers of TRPM1 reporter luminescence, concentration series – cell-based, SK-MEL-5, cherry-picked, set 3, MITF inhibitor project, dose response (AID 493073); type: functional;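 further: SK-MEL-5 melanoma cells with luciferase driven by the MITF target TRPM1 promoter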
T3 sequence (O75030 whole entry): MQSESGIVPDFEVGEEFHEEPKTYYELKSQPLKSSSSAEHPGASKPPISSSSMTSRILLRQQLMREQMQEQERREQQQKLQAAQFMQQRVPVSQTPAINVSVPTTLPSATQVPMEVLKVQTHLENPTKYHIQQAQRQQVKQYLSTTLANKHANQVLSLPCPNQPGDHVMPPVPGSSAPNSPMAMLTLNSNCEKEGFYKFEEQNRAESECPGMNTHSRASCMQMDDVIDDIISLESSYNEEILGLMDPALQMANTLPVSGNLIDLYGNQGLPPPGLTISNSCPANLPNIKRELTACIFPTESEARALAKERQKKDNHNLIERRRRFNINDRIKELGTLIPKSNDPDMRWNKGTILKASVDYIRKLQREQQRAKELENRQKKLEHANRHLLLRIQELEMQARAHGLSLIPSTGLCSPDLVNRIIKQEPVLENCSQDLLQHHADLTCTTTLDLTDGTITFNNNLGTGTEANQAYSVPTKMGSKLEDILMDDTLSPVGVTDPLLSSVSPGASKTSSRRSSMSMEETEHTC

[24] = tested on: INS1; assay: INS-1E survival protection against cytokine death – cell-based, luminescence, retest, dose response (AID 449756); type: functional; conditions: Rattus norvegicus;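 further: cell death triggered by IL-1 beta plus TNF-alpha plus IFN-gamma mixture; protective hits raise ATP signal compared with cytokine alone wells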
[25] = biological target: Paired box protein Pax-8 (Homo sapiens, UniProt Q06710); assay: PAX8 transcriptional activity inhibition in RMG-I – RMG-I cells, luciferase, cherry-pick, dose response (AID 687027); type: functional, cell-based;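 further: luciferase reporter driven by Pax8 target thyroperoxidase promoter measured by SteadyGlo luminescence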
[26] = cells; type: functional, cell-based
[27] = cells; type: functional, cell-based; remark: listed apart in the source

Chain of Peroxisome proliferator-activated receptor gamma/Nuclear receptor coactivator 1 (P37231 whole entry): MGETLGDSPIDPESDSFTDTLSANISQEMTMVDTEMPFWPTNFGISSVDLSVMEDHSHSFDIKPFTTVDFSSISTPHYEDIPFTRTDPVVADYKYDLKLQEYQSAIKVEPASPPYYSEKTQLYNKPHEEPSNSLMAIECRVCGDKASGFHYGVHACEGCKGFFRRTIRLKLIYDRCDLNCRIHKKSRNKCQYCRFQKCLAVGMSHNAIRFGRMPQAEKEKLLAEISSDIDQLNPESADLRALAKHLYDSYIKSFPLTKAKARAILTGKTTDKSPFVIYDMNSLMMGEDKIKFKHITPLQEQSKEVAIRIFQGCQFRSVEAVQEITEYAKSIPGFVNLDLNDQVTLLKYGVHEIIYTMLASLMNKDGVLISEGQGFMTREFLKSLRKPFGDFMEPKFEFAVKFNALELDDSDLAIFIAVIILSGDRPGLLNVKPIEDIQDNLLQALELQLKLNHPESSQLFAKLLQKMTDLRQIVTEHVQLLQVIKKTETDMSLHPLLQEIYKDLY
Chain of Peroxisome proliferator-activated receptor gamma/Nuclear receptor coactivator 1 (Q15788 whole entry, further chain): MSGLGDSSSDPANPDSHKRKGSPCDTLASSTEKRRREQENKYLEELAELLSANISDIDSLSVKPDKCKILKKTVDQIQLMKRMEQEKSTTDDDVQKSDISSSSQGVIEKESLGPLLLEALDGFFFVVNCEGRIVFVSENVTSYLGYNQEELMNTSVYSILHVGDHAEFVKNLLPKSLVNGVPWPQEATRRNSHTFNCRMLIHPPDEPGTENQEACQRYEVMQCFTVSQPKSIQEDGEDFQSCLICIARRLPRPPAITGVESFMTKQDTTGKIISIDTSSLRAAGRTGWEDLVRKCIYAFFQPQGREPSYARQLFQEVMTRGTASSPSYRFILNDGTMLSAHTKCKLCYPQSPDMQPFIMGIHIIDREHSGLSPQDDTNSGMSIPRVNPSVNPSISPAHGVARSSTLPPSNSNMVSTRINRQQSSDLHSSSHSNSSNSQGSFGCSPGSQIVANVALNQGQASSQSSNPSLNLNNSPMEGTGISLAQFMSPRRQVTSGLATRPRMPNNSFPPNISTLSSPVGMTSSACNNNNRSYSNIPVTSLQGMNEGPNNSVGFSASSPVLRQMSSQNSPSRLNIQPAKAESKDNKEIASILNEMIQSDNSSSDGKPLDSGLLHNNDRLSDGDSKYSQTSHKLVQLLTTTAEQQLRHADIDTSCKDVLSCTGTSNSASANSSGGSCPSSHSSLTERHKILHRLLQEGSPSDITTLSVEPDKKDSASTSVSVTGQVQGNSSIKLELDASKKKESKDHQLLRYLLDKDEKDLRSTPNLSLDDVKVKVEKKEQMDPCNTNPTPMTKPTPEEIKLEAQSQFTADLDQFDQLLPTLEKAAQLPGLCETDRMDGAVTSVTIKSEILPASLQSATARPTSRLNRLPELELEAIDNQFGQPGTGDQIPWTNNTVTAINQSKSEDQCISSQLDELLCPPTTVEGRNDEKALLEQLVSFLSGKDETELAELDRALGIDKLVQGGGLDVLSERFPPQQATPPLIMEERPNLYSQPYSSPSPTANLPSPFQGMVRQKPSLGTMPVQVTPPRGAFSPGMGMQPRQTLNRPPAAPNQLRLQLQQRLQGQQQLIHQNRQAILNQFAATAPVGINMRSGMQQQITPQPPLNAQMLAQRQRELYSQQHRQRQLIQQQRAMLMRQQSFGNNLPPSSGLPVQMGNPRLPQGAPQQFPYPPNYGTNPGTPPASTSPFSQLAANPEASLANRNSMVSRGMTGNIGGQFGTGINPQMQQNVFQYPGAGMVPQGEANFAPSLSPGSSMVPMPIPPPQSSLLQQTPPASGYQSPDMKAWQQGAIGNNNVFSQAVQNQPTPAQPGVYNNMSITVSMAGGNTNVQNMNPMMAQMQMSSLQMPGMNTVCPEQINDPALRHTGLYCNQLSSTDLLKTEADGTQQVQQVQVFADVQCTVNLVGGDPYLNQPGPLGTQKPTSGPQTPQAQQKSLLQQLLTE
Chain of Peroxisome proliferator-activated receptor gamma/Nuclear receptor coactivator 3 (P37231 whole entry): as the sequence (P37231 whole entry) above
Chain of Peroxisome proliferator-activated receptor gamma/Nuclear receptor coactivator 3 (Q9Y6Q9 whole entry, further chain): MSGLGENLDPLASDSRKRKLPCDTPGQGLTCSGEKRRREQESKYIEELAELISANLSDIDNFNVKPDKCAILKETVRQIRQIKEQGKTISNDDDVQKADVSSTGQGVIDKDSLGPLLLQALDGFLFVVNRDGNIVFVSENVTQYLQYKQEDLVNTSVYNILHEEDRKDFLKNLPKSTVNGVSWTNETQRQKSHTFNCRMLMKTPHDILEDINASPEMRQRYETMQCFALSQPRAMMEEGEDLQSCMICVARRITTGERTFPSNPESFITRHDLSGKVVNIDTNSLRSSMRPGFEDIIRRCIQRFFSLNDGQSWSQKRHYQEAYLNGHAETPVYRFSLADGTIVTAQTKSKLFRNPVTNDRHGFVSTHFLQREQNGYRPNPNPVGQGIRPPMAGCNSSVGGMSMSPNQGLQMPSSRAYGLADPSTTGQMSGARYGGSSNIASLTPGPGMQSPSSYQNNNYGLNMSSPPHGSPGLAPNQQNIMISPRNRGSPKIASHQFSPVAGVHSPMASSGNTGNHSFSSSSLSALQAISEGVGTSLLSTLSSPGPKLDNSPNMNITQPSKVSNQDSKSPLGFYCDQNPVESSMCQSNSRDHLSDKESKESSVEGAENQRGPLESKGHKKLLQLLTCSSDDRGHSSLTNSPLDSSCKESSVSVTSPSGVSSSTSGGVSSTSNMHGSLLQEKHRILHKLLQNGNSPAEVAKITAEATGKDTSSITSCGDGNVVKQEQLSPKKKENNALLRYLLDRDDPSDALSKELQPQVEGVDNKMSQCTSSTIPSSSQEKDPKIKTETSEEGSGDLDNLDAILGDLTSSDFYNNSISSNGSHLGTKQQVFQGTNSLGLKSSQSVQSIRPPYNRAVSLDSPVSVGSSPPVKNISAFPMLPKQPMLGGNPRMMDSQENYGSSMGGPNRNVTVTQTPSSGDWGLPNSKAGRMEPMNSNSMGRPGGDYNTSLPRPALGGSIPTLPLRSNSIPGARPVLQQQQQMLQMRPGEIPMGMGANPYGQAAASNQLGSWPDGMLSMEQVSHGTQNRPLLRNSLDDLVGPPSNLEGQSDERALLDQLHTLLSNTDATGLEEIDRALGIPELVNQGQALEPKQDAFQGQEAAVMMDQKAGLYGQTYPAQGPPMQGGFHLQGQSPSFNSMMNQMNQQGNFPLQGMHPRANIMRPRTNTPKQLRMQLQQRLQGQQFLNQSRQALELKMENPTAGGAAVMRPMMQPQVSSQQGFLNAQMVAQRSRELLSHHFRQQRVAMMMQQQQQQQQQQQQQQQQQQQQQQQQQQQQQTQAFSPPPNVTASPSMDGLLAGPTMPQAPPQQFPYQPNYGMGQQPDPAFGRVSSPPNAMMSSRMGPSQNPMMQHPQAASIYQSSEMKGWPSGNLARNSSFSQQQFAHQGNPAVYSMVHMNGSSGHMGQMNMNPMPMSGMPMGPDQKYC
Chain of Paired box protein Pax-8 (Q06710 whole entry): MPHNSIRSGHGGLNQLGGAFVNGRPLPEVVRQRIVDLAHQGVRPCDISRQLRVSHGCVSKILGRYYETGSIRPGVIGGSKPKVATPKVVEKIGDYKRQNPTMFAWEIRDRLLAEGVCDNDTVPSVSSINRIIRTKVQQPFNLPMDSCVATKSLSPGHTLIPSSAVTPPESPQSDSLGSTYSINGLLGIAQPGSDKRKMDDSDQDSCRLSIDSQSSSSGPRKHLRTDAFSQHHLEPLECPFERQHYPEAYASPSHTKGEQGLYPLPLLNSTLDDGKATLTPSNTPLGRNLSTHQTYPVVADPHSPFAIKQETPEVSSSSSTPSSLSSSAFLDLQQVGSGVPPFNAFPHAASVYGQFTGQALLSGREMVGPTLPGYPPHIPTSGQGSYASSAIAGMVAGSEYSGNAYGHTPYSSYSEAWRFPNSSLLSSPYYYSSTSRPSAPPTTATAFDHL
Chain of Melanocortin receptor 4 (P32245 whole entry): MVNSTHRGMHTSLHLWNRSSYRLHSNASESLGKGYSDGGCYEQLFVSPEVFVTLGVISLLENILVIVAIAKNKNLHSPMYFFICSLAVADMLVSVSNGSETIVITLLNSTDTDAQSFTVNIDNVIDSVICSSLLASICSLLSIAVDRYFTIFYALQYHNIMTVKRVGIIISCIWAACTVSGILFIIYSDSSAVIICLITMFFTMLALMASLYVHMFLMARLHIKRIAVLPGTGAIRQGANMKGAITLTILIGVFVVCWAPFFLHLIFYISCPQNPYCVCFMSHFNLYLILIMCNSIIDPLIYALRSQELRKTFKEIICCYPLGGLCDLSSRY

COc1cc(-n2c(=S)[nH]c3ccc(C)cc3c2=O)c(Cl)cc1Cl
EC50 [1]: > 79.4 µM (inactive) | EC50 [2]: > 79.4 µM (not active) | EC50 [3]: > 79.4 µM (not active)

CCOC(=O)C(C)Sc1nc2c(c(=O)[nH]c(=O)n2C)n1Cc1ccc(Cl)cc1 (configuration not stated)
EC50 [4]: 0.749 µM (active)

COc1ccc(OC)c(Nc2cc(C)nc3ccc(C)cc23)c1
EC50 [5]: > 120 µM (not active) | EC50 [6]: 11.7 µM (active) | EC50 [7]: 44.2 µM (active) | EC50 [8]: 6.31 µM (active) | EC50 [9]: 12.3 µM (active) | EC50 [10]: 18.8 µM (active) | EC50 [11]: 9.69 µM (active) | EC50 [4]: 5.96 µM (active)

COCC(C)NC(C(=O)Nc1ccc(Cl)c([N+](=O)[O-])c1)c1ccccc1 (configuration not stated)
EC50 [4]: 5.96 µM (active)

Cc1cc(-c2ccc(C(C)C)c(S(=O)(=O)N3CCN(c4ccccc4)CC3)c2)on1
IC50 [12]: > 80 µM (inactive)

Cn1c(=S)[nH]c2scc(-c3cccs3)c2c1=O
EC50 [13]: 145 µM (inconclusive) | EC50 [1]: 10.5 µM (inactive) | EC50 [2]: > 79.4 µM (not active) | EC50 [14]: 0.361 µM (active) | EC50 [3]: 11.4 µM (not active)

Cc1nnc(-c2cccc(Br)c2)c2cn(-c3cccc(Br)c3)nc12
EC50 [15]: 1.65 µM (active) | EC50 [16]: > 60 µM (not active) | IC50 [17]: > 64.6 µM (inactive) | IC50 [18]: > 64.6 µM (inactive) | IC50 [19]: > 100 µM (inactive)

Cc1ccc(NC(=O)/C=C/c2ccc([N+](=O)[O-])s2)c(C)c1
EC50 [20]: 1.03 µM (active) | EC50 [21]: 1 µM (active) | AC50 [22]: 1.3 µM (active) | AC50 [23]: 4.64 µM (active) | AC50 [24]: 4.69 µM (active) | AC50 [25]: 3.16 µM (active)

O=C(N/N=C\c1cc(Br)ccc1O)c1ccc(S(=O)(=O)N2CCCCC2)cc1
EC50 [26]: > 350 µM (not active) | EC50 [15]: 0.758 µM (active) | EC50 [27]: > 350 µM (not active) | EC50 [16]: > 60 µM (not active) | AC50 [22]: 1.8 µM (active) | AC50 [23]: 1.78 µM (active) | AC50 [24]: 0.809 µM (active)
